According to EP0013144A1, “Substituted diphenylamine derivatives, compositions and herbicidal uses thereof, and processes for their preparation” (ICI AUSTRALIA LIMITED, priority 1978, dated 1980):

Legend:
Format in all cases: in vivo
Wild Oats [1] = experiment: Post-emergence herbicidal activity (Example 32); conditions: 3 weeks after spraying
Outline: (§1)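 Glasshouse-raised seedlings received a single foliar spray once 10–12.5 cm high. The dose form was a diluted emulsifiable concentrate or milled suspension. Three weeks later, damage was visually graded 0–3, where 3+ denotes complete kill.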

Ryegrass [2] = experiment: Post-emergence herbicidal activity (Example 32); conditions: 3 weeks after spraying
Outline: as §1

Japanese millet [3] = experiment: Post-emergence herbicidal activity (Example 32); conditions: 3 weeks after spraying
Outline: as §1

Ipomea [4] = experiment: Post-emergence herbicidal activity (Example 32); conditions: 3 weeks after spraying
Outline: as §1

Wild Oats [5] = experiment: Pre-emergence herbicidal activity (Example 31); conditions: after three weeks
Outline: (§2)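 Visual damage score at three weeks: 0 = 0–25% damage, 3 = 75–99% kill, 3+ = 100% kill. Soil boxes with seeds sown 2 cm deep were sprayed before emergence with water-diluted emulsifiable concentrate or suspension, then grown in a glasshouse alongside unsprayed controls.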

Mustard = experiment: Pre-emergence herbicidal activity (Example 31); conditions: after three weeks
Outline: as §2

Japanese millet [6] = experiment: Pre-emergence herbicidal activity (Example 31); conditions: after three weeks
Outline: as §2

Sunflower [7] = experiment: Pre-emergence herbicidal activity (Example 31); conditions: after three weeks
Outline: as §2

Ipomea [8] = experiment: Pre-emergence herbicidal activity (Example 31); conditions: after three weeks
Outline: as §2

Wheat [9] = experiment: Post-emergence herbicidal activity (Example 32); design: key: 0-3 scale: 0 = 0-25% damage, 3 = 75-99% kill, 3+ = 100% kill; conditions: 3 weeks after spraying
Outline: as §1

Cotton (Deltapine) = experiment: Selective herbicidal activity, young pot plants (Example 35); conditions: crop; post-emergence; 0.08 kg/ha; after 20 days; mean of triplicate
Description: (§3) The compounds were formulated for test by mixing an appropriate amount with 5 ml of an emulsion prepared by diluting 160 ml of a solution containing 21.8 g per litre of "Span" 80 and 78.2 g per litre of "Tween" 20 in methylcyclohexanone to 500 ml with water. "Span" 80 is a Trade Mark for a surface-active agent comprising sorbitan monolaurate. "Tween" 20 is a Trade Mark for a surface-active agent comprising a condensate of sorbitan monolaurate with 20 molar proportions of ethylene oxide. Each 5 ml emulsion containing a test compound was then diluted to 40 ml with water and sprayed on to young pot plants (post-emergence test) of the species named in Table 7 below. Damage to test plants was assessed after 20 days on a scale of 0 to 9 whereo 0 is 0 to 10% and 9 is 90 to 100% kill. The tests were carried out in triplicate and the mean results are recorded in Table 7 below.

Digitaria sanguinalis = experiment: as above; conditions: weed; post-emergence; 0.08 kg/ha; after 20 days; mean of triplicate
Description: as §3

Echinochloa crus-galli = experiment: as above; conditions: weed; post-emergence; 0.08 kg/ha; after 20 days; mean of triplicate
Description: as §3

Sorghum halepense [10] = experiment: as above; conditions: weed; post-emergence; 0.08 kg/ha; after 20 days; mean of triplicate
Description: as §3

Setaria viridis = experiment: as above; conditions: weed; post-emergence; 0.08 kg/ha; after 20 days; mean of triplicate
Description: as §3

Soyabean (Amsoy) = experiment: as above; conditions: crop; post-emergence; 0.08 kg/ha; after 20 days; mean of triplicate
Description: as §3

Wheat [11] = experiment: Pre-emergence herbicidal activity (Example 31); design: key: 0-3 scale: 0 = 0-25% damage, 3 = 75-99% kill, 3+ = 100% kill; conditions: after three weeks
Outline: as §2

Ryegrass [12] = experiment: Pre-emergence herbicidal activity (Example 31); design: key: 0-3 scale: 0 = 0-25% damage, 3 = 75-99% kill, 3+ = 100% kill; conditions: after three weeks
Outline: as §2

Sunflower [13] = experiment: Post-emergence herbicidal activity (Example 32); conditions: 3 weeks after spraying
Outline: as §1

Soyabean = experiment: Selective herbicidal activity, seed boxes (Example 34); conditions: crop; 1.5 kg/ha; sprayed on one week old seedlings; 29 days after spraying; triplicate
From the text: (§4) The seeds of the test species were sprinkled onto . the surface of soil in seed boxes and covered with a thin layer of sand. The boxes were lightly watered with an overhead spray and placed in a glasshouse for one week to permit germination of the seeds and plant growth to a height of 4 to 5 inches. […] For comparison purposes at least one box containing one week old seedlings was sprayed lightly with water only. After spraying the boxes were returned to the glasshouse for a further 29 days after which the effect of the treatment was visually assessed.

Cotton = experiment: as above; conditions: crop; 1.5 kg/ha; sprayed on one week old seedlings; 29 days after spraying; triplicate
From the text: as §4

Setaria aviceps = experiment: as above; conditions: weed; 0.15 kg/ha; sprayed on one week old seedlings; 29 days after spraying; triplicate
From the text: as §4

Wild Oats [14] = experiment: as above; conditions: weed; 0.15 kg/ha; sprayed on one week old seedlings; 29 days after spraying; triplicate
From the text: as §4

Sorghum halepense [15] = experiment: as above; conditions: weed; 0.15 kg/ha; sprayed on one week old seedlings; 29 days after spraying; triplicate
From the text: as §4

Annual Rye Grass = experiment: as above; conditions: weed; 0.15 kg/ha; sprayed on one week old seedlings; 29 days after spraying; triplicate
From the text: as §4

Japanese millet [16] = experiment: as above; conditions: weed; 0.15 kg/ha; sprayed on one week old seedlings; 29 days after spraying; triplicate
From the text: as §4

SMILES | damage to plants, Rg (Ryegrass [2]; 1 kg/ha) | damage to plants, Rg (Ryegrass [2]; 5 kg/ha) | damage to plants, Jm (Japanese millet [3]; 1 kg/ha) | damage to plants, Jm (Japanese millet [3]; 5 kg/ha) | damage to plants, Ip (Ipomea [4]; 1 kg/ha) | damage to plants, Ip (Ipomea [4]; 5 kg/ha) | damage to plants, Ms (Mustard; 1 kg/ha) | damage to plants, Ms (Mustard; 5 kg/ha) | damage to plants, Jm (Japanese millet [6]; 1 kg/ha) | damage to plants, Jm (Japanese millet [6]; 5 kg/ha) | damage to plants, Sf (Sunflower [7]; 1 kg/ha) | damage to plants, Sf (Sunflower [7]; 5 kg/ha) | damage to plants, Ip (Ipomea [8]; 1 kg/ha) | damage to plants, Ip (Ipomea [8]; 5 kg/ha) | damage to plants, Wh (Wheat [9]; 1 kg/ha) | damage to plants, Wh (Wheat [9]; 5 kg/ha) | damage to test plants, Ct (Cotton (Deltapine)) | damage to test plants, Dg (Digitaria sanguinalis) | damage to test plants, Ec (Echinochloa crus-galli) | damage to test plants, Sh (Sorghum halepense [10]) | also measured
COC(=O)C(C)Oc1ccc(Nc2ccc(C(F)(F)F)cc2[N+](=O)[O-])cc1 (centres unmarked) [Compound 21, Methyl 2-[4-(2-nitro-4-trifluoromethylanilino)phenoxy]-propionate] | 3+ (3+ represents 100% kill) | 3+ (3+ represents 100% kill) | 3+ (3+ represents 100% kill) | 3+ (3+ represents 100% kill) | 0 (0 represents 0 to 25% damage) | 2 | 0 (0 represents from 0 to 25% damage) | 0 (0 represents from 0 to 25% damage) | 3+ (3+ represents 100% kill) | 3+ (3+ represents 100% kill) | 0 (0 represents from 0 to 25% damage) | 0 (0 represents from 0 to 25% damage) | 0 (0 represents from 0 to 25% damage) | 0 (0 represents from 0 to 25% damage) | 3 (3 represents 75 to 99% kill) | 3+ (3+ represents 100% kill) | 0 (0 is 0 to 10%) | 5 | 5 | 9 (9 is 90 to 100% kill) | damage to plants, Ot (Wild Oats [1]; 1 kg/ha): 3 (3 represents 75 to 99% kill); damage to plants, Ot (Wild Oats [1]; 5 kg/ha): 3+ (3+ represents 100% kill); damage to plants, Ot (Wild Oats [5]; 0.5 kg/ha): 3 (3 represents 75 to 99% kill); damage to plants, Ot (Wild Oats [5]; 1 kg/ha): 3+ (3+ represents 100% kill); damage to plants, Ot (Wild Oats [5]; 5 kg/ha): 3+ (3+ represents 100% kill); damage to plants, Ms (Mustard; 0.5 kg/ha): 0 (0 represents from 0 to 25% damage); damage to plants, Jm (Japanese millet [6]; 0.5 kg/ha): 3+ (3+ represents 100% kill); damage to plants, Sf (Sunflower [7]; 0.5 kg/ha): 0 (0 represents from 0 to 25% damage); damage to plants, Ip (Ipomea [8]; 0.5 kg/ha): 0 (0 represents from 0 to 25% damage); damage to test plants, St (Setaria viridis): 8; damage to test plants, Sy (Soyabean (Amsoy)): 0 (0 is 0 to 10%); damage to plants, Wh (Wheat [11]; 1 kg/ha): 2; damage to plants, Rg (Ryegrass [12]; 0.5 kg/ha): 3+ (3+ represents 100% kill); damage to plants, Rg (Ryegrass [12]; 1 kg/ha): 3+ (3+ represents 100% kill); damage to plants, Rg (Ryegrass [12]; 5 kg/ha): 3+ (3+ represents 100% kill)
CC(Oc1ccc(Nc2ccc(C(F)(F)F)cc2[N+](=O)[O-])cc1)C(=O)O (centres unmarked) [Compound 46, 2[4-(2-Nitro-4-trifluoromethylanilino)phenoxy]-propionic acid] | 3+ (3+ represents 100% kill) | 3+ (3+ represents 100% kill) | 3+ (3+ represents 100% kill) | 3+ (3+ represents 100% kill) | 0 (0 represents 0 to 25% damage) | 0 (0 represents 0 to 25% damage) | 0 (0 represents from 0 to 25% damage) | 0 (0 represents from 0 to 25% damage) | 3 (3 represents 75 to 99% kill) | 3+ (3+ represents 100% kill) | 0 (0 represents from 0 to 25% damage) | 0 (0 represents from 0 to 25% damage) | 0 (0 represents from 0 to 25% damage) | 0 (0 represents from 0 to 25% damage) | 2 | 3+ (3+ represents 100% kill) | – | – | – | – | damage to plants, Sf (Sunflower [13]; 1 kg/ha): 0 (0 represents 0 to 25% damage); damage to plants, Sf (Sunflower [13]; 5 kg/ha): 2; percentage damage, Sb (Soyabean): 38 percentage; percentage damage, Ct (Cotton): 50 percentage; percentage damage, St (Setaria aviceps): 55 percentage; percentage damage, Ot (Wild Oats [14]): 50 percentage; percentage damage, Sh (Sorghum halepense [15]): 88 percentage; percentage damage, Rg (Annual Rye Grass): 55 percentage; percentage damage, Jm (Japanese millet [16]): 85 percentage; damage to plants, Wh (Wheat [11]; 1 kg/ha): 0 (0 represents from 0 to 25% damage); damage to plants, Wh (Wheat [11]; 5 kg/ha): 2; damage to plants, Rg (Ryegrass [12]; 1 kg/ha): 2; damage to plants, Rg (Ryegrass [12]; 5 kg/ha): 3+ (3+ represents 100% kill)
CC(Oc1ccc(Nc2ccc(C(F)(F)F)cc2[N+](=O)[O-])cc1)C(=O)[O-].[Na+] (centres unmarked) [Compound 65, 2-[4-(2-Nitro-4-trifluoromethylanilino)phenoxy]-propionic acid sodium salt] | – | – | – | – | – | – | – | – | – | – | – | – | – | – | – | – | 0 (0 is 0 to 10%) | 3 | 9 (9 is 90 to 100% kill) | 8 | percentage damage, Sb (Soyabean): 0 percentage; percentage damage, Ct (Cotton): 0 percentage; percentage damage, St (Setaria aviceps): 50 percentage; percentage damage, Ot (Wild Oats [14]): 58 percentage; percentage damage, Sh (Sorghum halepense [15]): 80 percentage; percentage damage, Rg (Annual Rye Grass): 35 percentage; percentage damage, Jm (Japanese millet [16]): 100 percentage; damage to test plants, St (Setaria viridis): 2; damage to test plants, Sy (Soyabean (Amsoy)): 0 (0 is 0 to 10%)
